What was measured:
[1] = system: acidic transacylation of ceramide; conditions: lysosomal fraction of cells; earlier observation; cited from earlier work
[2] = molecular target: T1, LPLA2 (Canis lupus familiaris, UniProt Q6XPZ3); assay: LPLA2 activity in MDCK cells treated with cationic amphiphilic drugs, measured as transacylation of N-acetylsphingosine; assay type: cell-based
T1 construct: endogenous in cells; host or cells: MDCK cells
T1 sequence (Q6XPZ3 32-408): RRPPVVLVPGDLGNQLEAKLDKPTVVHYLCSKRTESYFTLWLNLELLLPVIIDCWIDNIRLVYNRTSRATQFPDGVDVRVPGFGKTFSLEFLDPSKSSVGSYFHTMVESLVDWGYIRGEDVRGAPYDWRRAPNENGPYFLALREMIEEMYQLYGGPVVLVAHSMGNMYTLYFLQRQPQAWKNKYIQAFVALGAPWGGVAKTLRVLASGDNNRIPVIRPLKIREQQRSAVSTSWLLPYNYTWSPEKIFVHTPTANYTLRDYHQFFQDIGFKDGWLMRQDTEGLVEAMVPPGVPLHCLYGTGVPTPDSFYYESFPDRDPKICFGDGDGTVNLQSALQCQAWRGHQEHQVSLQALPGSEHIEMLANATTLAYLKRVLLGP
Description: LPLA2 activity was measured as the transacylation of N-acetylsphingosine. […] The major cellular phospholipids were assayed following 1 or 7 days of exposure to the CAD.

[3] = molecular target: T2, recombinant mouse LPLA2 (Mus musculus, UniProt Q8VEB4); assay: Co-sedimentation of LPLA2 with liposomes (ultracentrifugation, SDS-PAGE); assay type: binding; conditions: DOPC or DOPC/sulfatide (10:1) liposomes; 33 μM amiodarone; FIGS. 13B and 13C
T2 sequence (Q8VEB4 34-412): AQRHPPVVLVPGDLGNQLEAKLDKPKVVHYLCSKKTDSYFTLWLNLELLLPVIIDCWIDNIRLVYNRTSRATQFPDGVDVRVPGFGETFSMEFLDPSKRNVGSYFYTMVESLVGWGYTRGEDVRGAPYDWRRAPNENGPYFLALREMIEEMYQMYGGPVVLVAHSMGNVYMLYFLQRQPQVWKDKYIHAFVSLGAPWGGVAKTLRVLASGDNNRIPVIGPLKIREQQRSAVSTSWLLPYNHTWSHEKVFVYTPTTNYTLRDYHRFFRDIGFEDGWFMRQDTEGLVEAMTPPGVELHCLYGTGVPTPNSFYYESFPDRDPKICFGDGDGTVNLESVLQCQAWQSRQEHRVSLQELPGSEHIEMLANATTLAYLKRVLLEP
Description: Liposomes consisting of DOPC or DOPC/sulfatide (10:1, molar ratio) were incubated with varying amounts of recombinant mouse LPLA2 in 500 μl of 48 mM Na-citrate (pH 4.5) for 30 min on ice (FIG. 13A). […] The reaction mixtures were centrifuged for 1 h at 150,000 g at 4° C. The concentration of DOPC in these assays was 127 μM. The resultant precipitates were briefly washed with cold 50 mM Na-citrate (pH 4.5) and dissolved with 40 μl of SDS-polyacrylamide gel electrophoresis sampling buffer. The samples were separated by using 12% SDS-polyacrylamide gel. After electrophoresis, LPLA2 was detected by staining with CBB.

[4] = molecular target: T3, LPLA2 (Homo sapiens, UniProt Q8NCC3); conditions: background description; cited from earlier work
T3 sequence (Q8NCC3 34-412): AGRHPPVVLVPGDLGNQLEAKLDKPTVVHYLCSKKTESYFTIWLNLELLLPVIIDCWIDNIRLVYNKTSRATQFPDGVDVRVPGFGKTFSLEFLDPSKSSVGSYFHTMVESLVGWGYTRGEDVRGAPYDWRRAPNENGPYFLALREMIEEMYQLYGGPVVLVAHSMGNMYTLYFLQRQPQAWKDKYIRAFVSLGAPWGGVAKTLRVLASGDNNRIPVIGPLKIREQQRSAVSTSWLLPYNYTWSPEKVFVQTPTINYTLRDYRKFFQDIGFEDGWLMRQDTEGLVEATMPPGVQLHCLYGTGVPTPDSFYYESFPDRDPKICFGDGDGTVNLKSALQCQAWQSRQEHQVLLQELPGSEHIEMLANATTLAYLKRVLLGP

[5] = system: LPLA2 null alveolar macrophages; assay: Uptake of recombinant LPLA2 into LPLA2 null alveolar macrophages (Western blotting, confocal microscopy, enzyme activity); assay type: cell-based, mouse
Text: Recombinant glycosylated mouse LPLA2 produced by HEK293 cells was applied to LPLA2-deficient (LPLA2−/−) mouse alveolar macrophages. […] Thus, the predominant pathway for uptake of exogenous LPLA2 is via the mannose receptor. (Abe et al., J. Immunol, 181(11):7873-81, 2008).
The ability of macrophages from LPLA2−/− mice to recognize, endocytose, and traffic recombinant LPLA2 was studied as follows. LPLA2 null alveolar macrophages were exposed to His-tagged mouse LPLA2 for 1 day at concentrations varying between 0.3 and 10 μg/ml. Cell incorporation was measured by Western blotting and confocal microscopy using either anti-His antibody or a monoclonal antibody raised to LPLA2.
(§1) Finally, the ability of the recombinant enzyme to “rescue” the cellular phenotype was confirmed by measuring the cellular phospholipid content.

[6] = system: LPLA2 null alveolar macrophages; conditions: Abe et al. J. Immunol 2008; cited from earlier work
[7] = molecular target: T2, recombinant mouse LPLA2; assay: 1-O-acylceramide synthase (transacylase) activity of recombinant LPLA2 on liposomes, 1-O-oleoyl-NAS by HPTLC; assay type: biochemical; conditions: DOPC/sulfatide/NAS liposomes vs DOPC/NAS, pH 4.5, 5-45 min at 37° C.; FIGS. 11A and 11B
Description: To address this possibility, the 1-O-acylceramide synthase activity of LPLA2 was studied in liposomes in which the anionic lipid content was varied by the addition of sulfatide, a negatively charged, sulfate containing glycolipid that is not a substrate for LPLA2. Di-octanoyl-PC (DOPC) was used as the liposomal substrate. The reaction mixture contained 48 mM sodium citrate (pH 4.5), 10 μg/ml BSA, liposomes (127 μM phospholipid) and 14.5 ng/ml of recombinant mouse LPLA2 in 500 μl of total volume. Liposomes consisting of DOPC/NAS (3:1, molar ratio) or DOP/sulfatide/NAS (3:0.3:1, molar ratio) were incubated with the enzyme for 5, 10, 15, 30 and 45 min at 37° C. The reaction products were extracted and separated by an HPTLC plate using a solvent system consisting of chloroform/acetic acid (9:1, v/v). The reaction product, 1-O-oleoyl-NAS, quantified by scanning the plate, was plotted against time (FIG. 11A). Liposomes consisting of DOPC/galactosylceramide/NAS or DOPC/sulfatide/NAS with a different molar ratio were incubated with the recombinant enzyme at 37° C. (FIG. 11B).

[8] = system: LPLA2 null alveolar macrophages; assay: Rescue of cellular phospholipid content in LPLA2 null alveolar macrophages by recombinant enzyme; assay type: cell-based, mouse; conditions: LPLA2 null alveolar macrophages treated with enzyme
Text: as §1

CCCCCCCCCC(=O)NC(CN1CCOCC1)C(O)c1ccccc1 (centres unmarked) [PDMP, 1-phenyl-2-decanoylamino-3-morpholino-1-propanol]
inhibition of acidic transacylation of ceramide [1]: inhibit acidic transacylation of ceramide | inhibition of LPLA2 activity as measured by ceramide transacylation ([2]; MDCK cells treated for 1 or seven days, FIG. 10A): concentration dependent inhibition of LPLA2 activity | IC50 for enzyme inhibition ([2]; MDCK cells, no numbers given): comparable IC50s

CCCCc1oc2ccccc2c1C(=O)c1cc(I)c(OCCN(CC)CC)c(I)c1 [amiodarone]
physical association between LPLA2 and liposomes [3]: inhibited

O=C1O/C(=C/Br)CCC1c1cccc2ccccc12 (centres unmarked) [bromoenollactone]
inhibition of LPLA2 enzyme activity [4]: do not inhibit the enzyme activity

CCCCC/C=C\C/C=C\C/C=C\C/C=C\CCCC(=O)C(F)(F)F [nonadecyltetraenyl trifluoromethyl ketone]
inhibition of LPLA2 enzyme activity [4]: do not inhibit the enzyme activity

COC1O[C@H](CO)[C@@H](O)[C@H](O)[C@@H]1O (stereo partly drawn) [α-Methyl-mannoside, α-methyl-mannoside]
blocking of incorporation of recombinant LPLA2 ([5]; 10 mM, 1-O-acyl-ceramide synthase activity, immunoblotting, confocal microscopy): blocked the incorporation of LPLA2 | suppression of uptake of exogenous LPLA2 [6]: significantly suppressed

sulfatide
physical association between LPLA2 and liposomes [3]: increased | transacylation activity in presence of anionic lipid [7]: time dependent increase in the transacylation activity

B1: Recombinant glycosylated mouse LPLA2: Recombinant glycosylated mouse LPLA2 produced by HEK293 cells (protein, UniProt Q8VEB4 34-412, looked up)
Lysosomal phospholipase A and …: T2 sequence (Q8VEB4 34-412)
modifications: HEK293-produced glycosylated
notes: Recombinant glycosylated mouse LPLA2 produced by HEK293 cells
uptake of exogenous LPLA2 into LPLA2−/− alveolar macrophages [6]: occurred in a concentration-dependent manner

B2: His-tagged mouse LPLA2: His-tagged recombinant mouse lysosomal phospholipase A2 applied to LPLA2 null alveolar macrophages (protein)
chain: T2 sequence (Q8VEB4 34-412)
modifications: left off: small tags and cut ends
notes: His-tagged recombinant mouse lysosomal phospholipase A2 applied to LPLA2 null alveolar macrophages
cellular LPLA2 (cell incorporation) ([5]; 1 day at 0.3 to 10 μg/ml, Western blotting, confocal microscopy, enzyme activity): concentration dependent increase in cellular LPLA2 | co-localization with lysosome protein Lamp-1 ([5]; cells stained with anti-LPLA2 and Lamp-1 antibodies): readily detected | cell phosphatidylcholine and phosphatidylethanolamine content [8]: concentration dependent decrease in cell phosphatidylcholine and phosphatidylethanolamine

— US10111937B2, “Method of reducing accumulation of intracellular tingible body macrophages” (THE REGENTS OF THE UNIVERSITY OF MICHIGAN, priority 2008, dated 2018)
